We go through 17 compounds from ChEMBL document CHEMBL1156075, “5,5'- and 6,6'-dialkyl-5,6-dihydro-1H-pyridin-2-ones as potent inhibitors of HCV NS5B polymerase” (Bioorg Med Chem Lett, 2009).

Series [1] in a line: in vitro. The following applies: human, liver microsomes. For orientation: Liver microsomes are vesicles of endoplasmic reticulum, rich in cytochrome P450 enzymes.
A further series concerns Hepatitis C virus. In words: microbe, parasite or virus in culture. The note with it: genotype 1b, Huh-7, 72 h.
Series [2] in a line: in vitro. The following applies: human, liver microsomes. This is another data set of the same source.
Series [3] in a line: in vitro. The note with it: human, Huh7/C24 cells.
Description: Cytotoxicity against human Huh7/C24 cells after 72 hrs by bDNA assay
Series [4] is described as follows: in vitro. The following applies: human, liver microsomes. The source holds these as a separate data set.

Bounds are passed on as bounds.

For `CCCC[C@]1(C)CN(C2CCC2)C(=O)C(C2=NS(=O)(=O)c3cc(NS(C)(=O)=O)ccc3N2)=C1O`, the half-life (usually the time needed for the level to fall by half in the phase considered) at 5 µM in the series “in vitro [1]” is more than 60 min; in the series “in vitro [2]”, 3 min. The concentration for a half-maximal effect (EC50) (commonly the concentration giving half of the maximal effect) with Hepatitis C virus is more than 10000 nM.

In the case of `CC(C)(C)CC[C@]1(C)CN(C2CCCCC2)C(=O)C(C2=NS(=O)(=O)c3cc(NS(C)(=O)=O)ccc3N2)=C1O`, the half-life at 5 µM in “in vitro [1]” was more than 60 min; in the series “in vitro [2]”, 1.4 min. Moreover, the CC50 (usually the concentration giving 50% cytotoxicity) at 72 h in the series “in vitro [3]” is more than 10000 nM. In addition, the EC50 in the series on Hepatitis C virus is 1400 nM.

Turning to `C[C@@]1(CCC2CC2)CN(C2CCC2)C(=O)C(C2=NS(=O)(=O)c3cc(NS(C)(=O)=O)ccc3N2)=C1O`, the half-life at 5 µM in “in vitro [1]” was more than 60 min; in “in vitro [2]”, 5.1 min. For the same compound, the CC50 at 72 h in the series “in vitro [3]” was more than 1000 nM. The EC50 with Hepatitis C virus turned out to be 150 nM.

For the compound `CC(C)CC[C@H]1CN(Cc2ccc(F)cc2)C(=O)C(C2=NS(=O)(=O)c3cc(NS(C)(=O)=O)ccc3N2)=C1O`, the CC50 at 72 h in “in vitro [3]” was more than 33000 nM. In the series on Hepatitis C virus, this compound returned a concentration giving a half-maximal response (EC50) of 490 nM. Moreover, the half-life at 5 µM in the series “in vitro [4]” stood at 6.5 min.

With `C[C@]1(CC2CC2)CN(Cc2ccc(F)cc2)C(=O)C(C2=NS(=O)(=O)c3cc(NS(C)(=O)=O)ccc3N2)=C1O`, the CC50 at 72 h in the series “in vitro [3]” is more than 33000 nM. The same compound came in with an EC50 in the series on Hepatitis C virus of 200 nM. For the same compound, the half-life at 5 µM in “in vitro [4]” was more than 60 min.

As for `CC(C)(C)[C@H]1CC(O)=C(C2=NS(=O)(=O)c3cc(NS(C)(=O)=O)ccc3N2)C(=O)N1Cc1ccc(F)cc1`, in “in vitro [3]”, the half-maximal cytotoxic concentration (CC50) at 72 h was more than 10000 nM. This compound also gave an EC50 in the series on Hepatitis C virus of 810 nM. This compound also showed a half-life at 5 µM in the series “in vitro [4]” of more than 60 min.

Consider `CC(C)[C@H]1CC(O)=C(C2=NS(=O)(=O)c3cc(NS(C)(=O)=O)ccc3N2)C(=O)N1Cc1ccc(F)cc1`, for which, in the series “in vitro [3]”, the CC50 at 72 h is more than 1000 nM. In the series on Hepatitis C virus, the EC50 amounted to 45 nM. Also, the half-life at 5 µM in “in vitro [4]” was more than 60 min.

`CS(=O)(=O)Nc1ccc2c(c1)S(=O)(=O)N=C(C1=C(O)C[C@@H](c3ccc(F)cc3)N(Cc3ccc(F)cc3)C1=O)N2` yielded a CC50 at 72 h in the series “in vitro [3]” of more than 10000 nM. The compound further returned an EC50 with Hepatitis C virus of 520 nM. Besides, in the series “in vitro [4]”, the half-life at 5 µM was more than 60 min.

With `CC1(C)CN(Cc2ccc(F)cc2)C(=O)C(C2=NS(=O)(=O)c3cc(NS(C)(=O)=O)ccc3N2)=C1O`, the CC50 at 72 h in the series “in vitro [3]” was more than 33000 nM. The same compound returned an EC50 in the series on Hepatitis C virus of 1300 nM. The half-life at 5 µM in “in vitro [4]” was more than 60 min.

Consider `CCC[C@]1(C)CN(C2CCC2)C(=O)C(C2=NS(=O)(=O)c3cc(NS(C)(=O)=O)ccc3N2)=C1O`, for which the half-life at 5 µM in “in vitro [1]” is more than 60 min; in “in vitro [2]” it was 2.8 min. In the series with Hepatitis C virus, this compound gave an EC50 of 8500 nM.

Turning to `CS(=O)(=O)Nc1ccc2c(c1)S(=O)(=O)N=C(C1=C(O)C3(CCC3)CN(Cc3ccc(F)cc3)C1=O)N2`, in “in vitro [3]”, the CC50 at 72 h was more than 33000 nM. In the series on Hepatitis C virus, the EC50 was found to be 770 nM. Also, the half-life at 5 µM in “in vitro [4]” is more than 60 min.

On to `CC(C)CC[C@@]1(C)CN(Cc2ccc(F)cc2)C(=O)C(C2=NS(=O)(=O)c3cc(NS(C)(=O)=O)ccc3N2)=C1O`, for which the CC50 at 72 h in the series “in vitro [3]” was more than 33000 nM. The EC50 in the series with Hepatitis C virus is 770 nM. For the same compound, in the series “in vitro [4]”, the half-life at 5 µM is 5.7 min.

Compound `CC(C)CC[C@@H]1CN(C2CCCC2)C(=O)C(C2=NS(=O)(=O)c3cc(NS(C)(=O)=O)ccc3N2)=C1O` displayed a CC50 at 72 h in the series “in vitro [3]” of more than 33000 nM. Also, the EC50 in the series with Hepatitis C virus amounted to 43 nM. The same compound displayed a half-life at 5 µM in “in vitro [4]” of 32 min.

The compound `CC[C@@]1(C)CN(Cc2ccc(F)cc2)C(=O)C(C2=NS(=O)(=O)c3cc(NS(C)(=O)=O)ccc3N2)=C1O` registered a CC50 at 72 h in “in vitro [3]” of more than 1000 nM. Moreover, the EC50 with Hepatitis C virus stood at 160 nM. The half-life at 5 µM in the series “in vitro [4]” was more than 60 min.

In turn, `CC(C)(C)CC[C@]1(C)CN(C2CC2)C(=O)C(C2=NS(=O)(=O)c3cc(NS(C)(=O)=O)ccc3N2)=C1O` yielded a cytotoxic concentration (CC50) at 72 h in “in vitro [3]” of more than 10000 nM. The compound also displayed an EC50 in the series on Hepatitis C virus of 330 nM. For the same compound, in “in vitro [4]”, the half-life at 5 µM was determined as 10 min.

As for `CS(=O)(=O)Nc1ccc2c(c1)S(=O)(=O)N=C(C1=C(O)[C@@H](Cc3ccc(F)cc3)CN(Cc3ccc(F)cc3)C1=O)N2`, the CC50 at 72 h in the series “in vitro [3]” was more than 33000 nM. The compound also returned an EC50 with Hepatitis C virus of 3600 nM. Further, the half-life at 5 µM in “in vitro [4]” was more than 60 min.

`CS(=O)(=O)Nc1ccc2c(c1)S(=O)(=O)N=C(C1=C(O)C3(CC3)CN(Cc3ccc(F)cc3)C1=O)N2` registered a CC50 at 72 h in the series “in vitro [3]” of more than 1000 nM. Besides, the EC50 with Hepatitis C virus was determined as 550 nM. In the series “in vitro [4]”, this compound returned a half-life at 5 µM of more than 60 min.
